Read-outs that look alike come from different tables or passages of the source.
Columns and labels:
Assay type in all cases: cell-based
Anabaena flos-aquae [1] = assay: Test tube culture inhibition of Anabaena flos-aquae, algal units/ml; details: for inhibition of growth at 10 ppm: Dolichospermum flos-aquae
Method: (§1) The algae used in this particular study were Chlamydomonas sp., Chlorella vulgaris, Anabaena sp., and Anabaena flos-aquae. Cultures of these algae were obtained, subcultured, and aqueous stocks of algae in 400 ml BBM were prepared and were used in log phase growth to innoculate test cultures.
(§2) The fatty acids which were tested as algal inhibitors were 9, 10-dihydroxystearic acid, linoleic acid, dodecanoic acid, and ricinoleic acid.
(§3) The test procedure involved placing 15 ml of BBM into 25 ml test tubes and innoculating them with 0.2 ml of algal stock solution. Twenty test tubes were innoculated with each algae. Four of these cultures were used with each concentration of each of the fatty acids. Four tubes from each set served as controls. Four concentrations of the fatty acids were used for each alga. The concentrations studied were 0.5 PPM, 1.0 PPM, 5.0 PPM, and 10.0 PPM.
(§4) Algal cultures were incubated under constant light of about 200 foot-candles and at a temperature of 68° F. Bold's Basal Medium (BBM), a modification of Bristol's solution was the medium in which all the cultures were grown. Bold's Basal Medium was prepared as follows:
(§5) Concentrations of fatty acids and the amount of stock solution used to prepare them were as follows:
(§6) Each test tube contained 15 ml sterile BBM. To this was added an aliquot of 0.2 of algal stock solution. Then the appropriate aliquots of warm acid stock solution were added to the appropriate number of culture tubes. These cultures were then incubated 5 days and at that point were counted. The same cultures were also counted after a 12 day growth period.
(§7) Stock solutions of the fatty acids to be tested as algal inhibitors were made from a stock solution of 5% sodium bicarbonate in glass-distilled water. The 5% sodium bicarbonate stock solution was made by dissolving 150 grams of sodium bicarbonate in 3000 ml of glass-distilled water. To insure complete dissolution, the solution was heated and stirred on a magnetic stirrer hot plate. The warm solution was used in preparing the fatty acid stock solutions.
(§8) Quanitative phytoplankton values were determined using the random field method. Filaments, colonies, and aggregations of cells were recorded as algal units. Each unit consisted of approximately 6 cells. Unicellular algae were counted as separate units. Algal counts were made from each of three duplicate cultures. One ml of the algal sample was placed in a Sedgwick-Rafter counting chamber, which is 50 mm long by 20 mm, wide by 1 mm deep. A Wild Heerbrugg, compound microscope with a Whipple grid eyepiece was used to determine quantitative algae values.
(§9) One ml of the algal solution was placed in the counting chamber, and two drops of methyl cellulose were added to minimize the movement of Chlamydomonas sp. Ten random fields were counted and all organisms within the Whipple grid field were enumerated.
(§10) The following formula used to calculate the numbers per milliliter from the field counts: [formula] where: C=number of organisms counted,
(§11) The area of the Whipple grid used was 0.46 mm^2, and the depth of a field was 1 mm. Results of the counts were reported as algal units/ml.

Anabaena sp. = assay: Test tube culture inhibition of Anabaena sp., algal units/ml
Method: as §1, §2, §3, §4, §5, §6, §7, §8, §9, §10, §11

Chlorella vulgaris [2] = assay: Test tube culture inhibition of Chlorella vulgaris, algal units/ml
Method: as §1, §2, §3, §4, §5, §6, §7, §8, §9, §10, §11

Chlamydomonas sp. = assay: Test tube culture inhibition of Chlamydomonas sp., algal units/ml
Method: as §1, §2, §3, §4, §5, §6, §7, §8, §9, §10, §11

Anabaena flos-aquae [3] = assay: 300 ml batch culture of Anabaena flos-aquae, visual
Method: (§12) As a means of visually confirming some of the results batch cultures of 300 ml. of Anabaena flos-aquae and Chlorella vulgaris were grown.

Chlorella vulgaris [4] = assay: 300 ml batch culture of Chlorella vulgaris, visual; details: batch cultures, all concentrations
Method: as §12

[5] = 120 h, 5 days, 10.0 PPM, read-out: reduction of algal units/ml, % of the control
[6] = 288 h, 12 days, 10 PPM, read-out: reduction of algal units/ml, % of the control
[7] = 5 and 12 days, all concentrations

SMILES: CCCCC/C=C\C/C=C\CCCCCCCC(=O)O [Linoleic Acid, linoleic acid]
- Algal units/ml (Anabaena flos-aquae [1]; 5 days, 0.5 PPM): 1087 units/ml
- effect on algal growth (Anabaena flos-aquae [1]; 5 days, 0.5 PPM): inhibition
- Algal units/ml (Anabaena flos-aquae [1]; 5 days, 1.0 PPM): 3261 units/ml
- effect on algal growth (Anabaena flos-aquae [1]; 5 days, 1.0 PPM): stimulation
- Algal units/ml (Anabaena flos-aquae [1]; 5 days, 5.0 PPM): 1087 units/ml
- Algal units/ml (Anabaena flos-aquae [1]; 5 days, 10.0 PPM): 217 units/ml
- Algal units/ml (Anabaena flos-aquae [1]; 12 days, 0.5 PPM): 14565 units/ml
- Algal units/ml (Anabaena flos-aquae [1]; 12 days, 1.0 PPM): 8261 units/ml
- Algal units/ml (Anabaena flos-aquae [1]; 12 days, 5.0 PPM): 4130 units/ml
- Algal units/ml (Anabaena flos-aquae [1]; 12 days, 10.0 PPM): 3969 units/ml
- effect on algal growth (Anabaena flos-aquae [1]; 12 days, all concentrations): inhibitory effect
- inhibition of growth at 10 ppm (Anabaena flos-aquae [1]; 120 h, 5 days, 10 PPM, read-out: reduction of algal units/ml of the control): 90.9%
- inhibition of growth at 10 ppm (Anabaena sp.; [5]): 38.1%
- Algal units/ml (Anabaena sp.; 5 days, 0.5 PPM): 45217 units/ml
- Algal units/ml (Anabaena sp.; 5 days, 1.0 PPM): 46957 units/ml
- Algal units/ml (Anabaena sp.; 5 days, 5.0 PPM): 32609 units/ml
- Algal units/ml (Anabaena sp.; 5 days, 10.0 PPM): 19783 units/ml
- reduction in algal units/ml vs control (Anabaena sp.; 5 days, 10.0 PPM): 12,174 algal units/ml
- inhibition of growth at 10 ppm (Anabaena sp.; [6]): 19.5%
- Algal units/ml (Anabaena sp.; 12 days, 0.5 PPM): 114565 units/ml
- Algal units/ml (Anabaena sp.; 12 days, 1.0 PPM): 135217 units/ml
- Algal units/ml (Anabaena sp.; 12 days, 5.0 PPM): 98261 units/ml
- Algal units/ml (Anabaena sp.; 12 days, 10.0 PPM): 95000 units/ml
- Algal units/ml (Chlorella vulgaris [2]; 5 days, 0.5 PPM): 8697 units/ml
- Algal units/ml (Chlorella vulgaris [2]; 5 days, 1.0 PPM): 12174 units/ml
- Algal units/ml (Chlorella vulgaris [2]; 5 days, 5.0 PPM): 10870 units/ml
- Algal units/ml (Chlorella vulgaris [2]; 5 days, 10.0 PPM): 11304 units/ml
- Algal units/ml (Chlorella vulgaris [2]; 12 days, 0.5 PPM): 195652 units/ml
- Algal units/ml (Chlorella vulgaris [2]; 12 days, 1.0 PPM): 239130 units/ml
- Algal units/ml (Chlorella vulgaris [2]; 12 days, 5.0 PPM): 304348 units/ml
- Algal units/ml (Chlorella vulgaris [2]; 12 days, 10.0 PPM): 195652 units/ml
- Algal units/ml (Chlamydomonas sp.; 5 days, 0.5 PPM): 11087 units/ml
- Algal units/ml (Chlamydomonas sp.; 5 days, 1.0 PPM): 12609 units/ml
- Algal units/ml (Chlamydomonas sp.; 5 days, 5.0 PPM): 12391 units/ml
- reduction of number of algal units/ml vs control (Chlamydomonas sp.; 5 days, 10 PPM): 5,000 algal units/ml
- Algal units/ml (Chlamydomonas sp.; 5 days, 10.0 PPM): 6522 units/ml
- Algal units/ml (Chlamydomonas sp.; 12 days, 0.5 PPM): 45652 units/ml
- Algal units/ml (Chlamydomonas sp.; 12 days, 1.0 PPM): 52174 units/ml
- Algal units/ml (Chlamydomonas sp.; 12 days, 5.0 PPM): 50000 units/ml
- Algal units/ml (Chlamydomonas sp.; 12 days, 10.0 PPM): 51087 units/ml
- inhibition of growth at 10 ppm (Chlamydomonas sp.; Chlamydomonas, 120 h, 5 days, 10 PPM, read-out: reduction of number of algal units/ml, % of the control): 43.4%

SMILES: CCCCCC[C@@H](O)C/C=C\CCCCCCCC(=O)O [Ricinoleic Acid, ricinoleic acid]
- inhibition (visual) (Anabaena flos-aquae [3]; 1 PPM): slightly inhibited
- inhibition (visual) (Anabaena flos-aquae [3]; 10 PPM): greatly inhibited
- inhibition (visual) (Chlorella vulgaris [4]): no inhibition was noticed
- effect on algal growth (Anabaena flos-aquae [1]; [7]): inhibitory effect
- Algal units/ml (Anabaena flos-aquae [1]; 5 days, 0.5 PPM): 435 units/ml
- Algal units/ml (Anabaena flos-aquae [1]; 5 days, 1.0 PPM): 1087 units/ml
- Algal units/ml (Anabaena flos-aquae [1]; 5 days, 5.0 PPM): 1087 units/ml
- Algal units/ml (Anabaena flos-aquae [1]; 5 days, 10.0 PPM): 652 units/ml
- Algal units/ml (Anabaena flos-aquae [1]; 12 days, 0.5 PPM): 10217 units/ml
- Algal units/ml (Anabaena flos-aquae [1]; 12 days, 1.0 PPM): 6522 units/ml
- Algal units/ml (Anabaena flos-aquae [1]; 12 days, 5.0 PPM): 4783 units/ml
- reduction in number of algal units/ml vs control (Anabaena flos-aquae [1]; 12 days, 10 PPM): 38,261 algal units/ml
- Algal units/ml (Anabaena flos-aquae [1]; 12 days, 10.0 PPM): 3043 units/ml
- inhibition of growth at 10 ppm (Anabaena flos-aquae [1]; 288 h, 12 days, 10 PPM, read-out: reduction in number of algal units/ml, % of the control): 92.6%
- inhibition of growth at 5 ppm (Anabaena sp.; 120 h, 5 days, 5.0 PPM, read-out: reduction of algal units/ml, % of the control): 15.6%
- inhibition of growth at 10 ppm (Anabaena sp.; [5]): 30.6%
- Algal units/ml (Anabaena sp.; 5 days, 0.5 PPM): 36522 units/ml
- Algal units/ml (Anabaena sp.; 5 days, 1.0 PPM): 35652 units/ml
- Algal units/ml (Anabaena sp.; 5 days, 5.0 PPM): 26957 units/ml
- Algal units/ml (Anabaena sp.; 5 days, 10.0 PPM): 22174 units/ml
- reduction in algal units/ml vs control (Anabaena sp.; 5 days, 10.0 PPM): 9,783 algal units/ml
- inhibition of growth at 0.5 ppm (Anabaena sp.; 288 h, 12 days, 0.5 PPM (so in the source), read-out: reduction of algal units/ml, % of the control): 59.7%
- inhibition of growth at 10 ppm (Anabaena sp.; [6]): 65.2%
- Algal units/ml (Anabaena sp.; 12 days, 0.5 PPM): 97391 units/ml
- reduction of algal units/ml vs control (Anabaena sp.; 12 days, 0.5 PPM (so in the source)): 70,434 algal units/ml
- Algal units/ml (Anabaena sp.; 12 days, 1.0 PPM): 81957 units/ml
- Algal units/ml (Anabaena sp.; 12 days, 5.0 PPM): 47609 units/ml
- reduction of algal units/ml vs control (Anabaena sp.; 12 days, 10 PPM): 76,956 algal units/ml
- Algal units/ml (Anabaena sp.; 12 days, 10.0 PPM): 41087 units/ml
- effect on growth (Anabaena sp.; concentrations of 1.0 PPM or less): stimulatory effect
- Algal units/ml (Chlorella vulgaris [2]; 5 days, 0.5 PPM): 20217 units/ml
- Algal units/ml (Chlorella vulgaris [2]; 5 days, 1.0 PPM): 21739 units/ml
- Algal units/ml (Chlorella vulgaris [2]; 5 days, 5.0 PPM): 22391 units/ml
- Algal units/ml (Chlorella vulgaris [2]; 5 days, 10.0 PPM): 20870 units/ml
- Algal units/ml (Chlorella vulgaris [2]; 12 days, 0.5 PPM): 217391 units/ml
- Algal units/ml (Chlorella vulgaris [2]; 12 days, 1.0 PPM): 326087 units/ml
- Algal units/ml (Chlorella vulgaris [2]; 12 days, 5.0 PPM): 326087 units/ml
- Algal units/ml (Chlorella vulgaris [2]; 12 days, 10.0 PPM): 326087 units/ml
- activation at 0.5 ppm (Chlorella vulgaris [2]; Chlorella vulgaris, 120 h, 5 days, 0.5 PPM, read-out: more algal units/ml than in the control): 86%
- activation at 10 ppm (Chlorella vulgaris [2]; Chlorella vulgaris, 288 h, 12 days, 10 PPM, read-out: more algal units/ml than in the control): 50%
- effect on algal growth (Chlorella vulgaris [2]; all concentrations at 5 days, 5 and 10 PPM at 12 days): stimulatory effect
- effect on algal growth (Chlamydomonas sp.; [7]): stimulatory effect
- concentration of maximum stimulatory effect (Chlamydomonas sp.; 5 days): 5.0 PPM
- Algal units/ml (Chlamydomonas sp.; 5 days, 0.5 PPM): 18696 units/ml
- Algal units/ml (Chlamydomonas sp.; 5 days, 1.0 PPM): 29130 units/ml
- Algal units/ml (Chlamydomonas sp.; 5 days, 5.0 PPM): 32609 units/ml
- Algal units/ml (Chlamydomonas sp.; 5 days, 10.0 PPM): 13043 units/ml
- concentration of maximum stimulatory effect (Chlamydomonas sp.; 12 days): 0.5 PPM
- Algal units/ml (Chlamydomonas sp.; 12 days, 0.5 PPM): 65217 units/ml
- Algal units/ml (Chlamydomonas sp.; 12 days, 1.0 PPM): 63043 units/ml
- Algal units/ml (Chlamydomonas sp.; 12 days, 5.0 PPM): 52174 units/ml
- Algal units/ml (Chlamydomonas sp.; 12 days, 10.0 PPM): 54348 units/ml
- activation at 5 ppm (Chlamydomonas sp.; Chlamydomonas, 120 h, read-out: increase in number of algal units/ml of the control): 183%
